Values of other authors as cited in PMC3667888 (Channels, 2013).

Tested on: Kv1 channels
Conditions: applied externally; cited from earlier work

For CCCCC/C=C\C/C=C\C/C=C\C/C=C\CCCC(=O)NCCO [AEA, anandamide], the “inhibition of Kv1 channels by anandamide” value is listed as “not inhibited”.
